Data set [1] concerns HCT-116 human colon carcinoma cells. The experiment in a line: MTS cytotoxicity assay (72 h exposure). The format is cell-based. As for the experimental part:
Cytoxicity was assessed in HCT-116 human colon carcinoma cells by MTS (3-(4,5-dimethylthiazol-2-yl)-5-(3-carboxymethoxyphenyl)-2-(4-sulphenyl)-2H-tetrazolium, inner salt) assay as reported in T. L. Riss, et. al., "Comparison of MTT, XTT, and a novel tetrazolium compound MTS for in vitro proliferation and chemosensitivity assays.," Mol. Biol. Cell 3 (Suppl.):184a, 1992. Cells were plated at 4,000 cell/well in 96 well microtiter plates and 24 hours later drugs were added and serial diluted. The cells were incubated at 37° for 72 hours at which time the tetrazolium dye, MTS at 333 μg/ml (final concentration), in combination with the electron coupling agent phenazine methosulfate at 25 μM (final concentration) was added. A dehydrogenase enzyme in live cells reduces the MTS to a form that absorbs light at […] which can be quantitated spectrophotometrically. The greater the absorbance the greater the number of live cells. The results are expressed as an IC50, which is the drug concentration required to inhibit cell proliferation (i.e. absorbance at 450 nm) to 50% of that of untreated control cells. The IC50 values for compounds evaluated in this assay are evaluated in Table I.
^1 Cytotoxicity was determined after a 72 h exposure by MTS assay.
A general note: Tetrazolium assays rely on reduction of a dye to a coloured formazan, in cell work by metabolically active cells.

The test system of another data set is M5076 murine sarcoma. The experiment in a line: sc M5076 murine sarcoma model, tumor growth delay. The format is in vivo. The settings on record: sc M5076, iv on days 1, 3, 5, 7, and 9 post-implant, at optimal dose. Here is the method:
M5076: Taxane derivatives were tested in the M5076 murine sarcoma model using the general materials and methods described by Rose, W. C. in Anticancer Research 6: 557-562, 1986, for subcutaneous M5076 implants, with the following modifications: treatments were administered intravenously on Days 1, 3, 5, 7, and 9 post-tumor implant using eight mice per treatment and untreated control group. Activity was determined based on an increase in lifespan (as described in the preceding reference) of […], and, in particular, on a delay in tumor growth equivalent to at least 1 gross log cell kill (LCK). The latter was calculated as described in Rose, W. C. and Basler, G. A. in In Vivo 4: 391-396, 1990.
(§1) ^a Optimal dose (mg/kg/inj) if active, otherwise, maximal tolerated
(§2) dose (MTD) or highest dose tested.

In a further data set the test system is M109 lung carcinoma. The experiment in a line: Mice M109 Model (In-Vivo), ip M109 lung carcinoma, median survival. Details: species or system mouse. The settings on record: ip M109, Balb/c×DBA/2 F1 mice, ip injections days 5 and 8 post-implant, at optimal dose. As for the experimental part: Balb/c×DBA/2 F1 hybrid mice were implanted intraperitoneally, as described by William Rose in Evaluation of Madison 109 Lung Carcinoma as a Model for Screening Antitumor Drugs, Cancer Treatment Reports, 65, No. 3-4 (1981), with 0.5 mL of a 2% (w/v) brei of M109 lung carcinoma.
Mice were treated with compounds under study by receiving intraperitoneal injections of various doses on days 5 and 8 post-implant. Mice were followed daily for survival until approximately 75 days post-tumor implant. One group of mice per experiment remained untreated and served as the control group.
Median survival times of compound-treated (T) mice were compared to the median survival time of the control (C) mice. The ratio of the two values for each compound-treated group of mice was multiplied by 100 and expressed as a percentage (i.e. % T/C) in the following Table II for representative compounds.
as §1, §2

[2] abbreviates: Homo sapiens, HCT-116, 72 h, read-out: Cytotoxicity Assay IC50 against HCT 116 Human colon tumor cell line.
Where [3] appears, read: Homo sapiens, HCT-116, read-out: Cytotoxicity Assay IC50 against HCT 116 Human colon tumor cell line.

Like-named read-outs stand apart in the source and are kept apart here. Bounds are passed on as bounds.

What is called IC50 is the concentration needed to halve the response being measured. With `CC(=O)O[C@H]1C(=O)[C@]2(C)C[C@@H]([S+](C)[O-])[C@H]3OC[C@@]3(OC(C)=O)[C@H]2[C@H](OC(=O)c2ccccc2)[C@]2(O)C[C@H](OC(=O)[C@H](O)[C@@H](NC(=O)c3ccccc3)c3ccccc3)C(C)=C1C2(C)C` (single isomer, unassigned) [Compound 19a, 7-deoxy-6β-methyl sulfoxide-paclitaxel], in data set [1] (4320 min, read-out: Cytotoxicity Assay IC50 against HCT 116 Human colon tumor cell line), the IC50 is above 111 nM.
On to `CC(=O)O[C@H]1C(=O)[C@]2(C)C[C@@H]([S+](C)[O-])[C@H]3OC[C@@]3(OC(C)=O)[C@H]2[C@H](OC(=O)c2ccccc2)[C@]2(O)C[C@H](OC(=O)[C@H](O)[C@@H](NC(=O)OC(C)(C)C)c3ccccc3)C(C)=C1C2(C)C` (single isomer, unassigned) [Compound 26, 3'-NH-Boc-7-deoxy-6b-methylsulfoxidepaclitaxel], for which the IC50 in data set [1] (setting [2]) is 0.66 nM.
As to `CC(=O)O[C@H]1C(=O)[C@]2(C)C[C@@H]([S+]([O-])CC#N)[C@H]3OC[C@@]3(OC(C)=O)[C@H]2[C@H](OC(=O)c2ccccc2)[C@]2(O)C[C@H](OC(=O)[C@H](O)[C@@H](NC(=O)c3ccccc3)c3ccccc3)C(C)=C1C2(C)C` (single isomer, unassigned) [Compound 38, 6b-cyanomethylsulfoxo-7-deoxypaclitaxel], the half-inhibitory concentration (IC50) in data set [1] (setting [2]) was 28 nM. For the same compound, the “Maximum T-C in LCK (gross log cell kill)” value with M5076 murine sarcoma came to 0 LCK.
As to `CS[C@@H]1C[C@@]2(C)C(=O)[C@H](OC(C)=O)C3=C(C)[C@@H](OC(=O)[C@H](O)[C@@H](NC(=O)c4ccccc4)c4ccccc4)C[C@@](O)([C@@H](OC(=O)c4ccccc4)[C@@H]2[C@]2(OC(C)=O)CO[C@H]12)C3(C)C` [Compound 9, 7-deoxy-6β-thiomethylpaclitaxel], in data set [1] (setting [2]), the concentration for half-maximal inhibition (IC50) was determined as 1.1 nM. In addition, in the data set with M5076 murine sarcoma, the “Maximum T-C in LCK (gross log cell kill)” value turned out to be 1.1 LCK.
The matching figures for `CC(=O)O[C@H]1C(=O)[C@]2(C)C[C@@H](SC(C)=O)[C@H]3OC[C@@]3(OC(C)=O)[C@H]2[C@H](OC(=O)c2ccccc2)[C@]2(O)C[C@H](OC(=O)[C@H](O)[C@@H](NC(=O)c3ccccc3)c3ccccc3)C(C)=C1C2(C)C` [Compound 11, 7-deoxy-6β-thioacetoxypaclitaxel]: 1.84 nM and 0.5 LCK.
Turning to `CC(=O)O[C@H]1C(=O)[C@]2(C)C[C@@H](S)[C@H]3OC[C@@]3(OC(C)=O)[C@H]2[C@H](OC(=O)c2ccccc2)[C@]2(O)C[C@H](OC(=O)[C@H](O)[C@@H](NC(=O)c3ccccc3)c3ccccc3)C(C)=C1C2(C)C` [Compound 13, 7-deoxy-6β-thio-paclitaxel], in data set [1] (setting [3]), the 50% inhibitory concentration (IC50) worked out at 26.1 nM. Besides, the “Maximum T-C in LCK (gross log cell kill)” value in the data set on M5076 murine sarcoma stood at 0.5 LCK.
Regarding `CC(=O)O[C@H]1C(=O)[C@]2(C)C[C@@H](SCCO)[C@H]3OC[C@@]3(OC(C)=O)[C@H]2[C@H](OC(=O)c2ccccc2)[C@]2(O)C[C@H](OC(=O)[C@H](O)[C@@H](NC(=O)c3ccccc3)c3ccccc3)C(C)=C1C2(C)C` [Compound 15, 7-deoxy-6β-(2-hydroxyethyl)thio-paclitaxel], the IC50 in data set [1] (setting [3]) stood at 1.8 nM. For the same compound, in the data set with M5076 murine sarcoma, the “Maximum T-C in LCK (gross log cell kill)” value is on record as 0.3 LCK.
As for `CS[C@@H]1C[C@@]2(C)C(=O)[C@H](OC(C)=O)C3=C(C)[C@@H](OC(=O)[C@H](O)[C@@H](NC(=O)OC(C)(C)C)c4ccccc4)C[C@@](O)([C@@H](OC(=O)c4ccccc4)[C@@H]2[C@]2(OC(C)=O)CO[C@H]12)C3(C)C` [Compound 24, 3'-NH-Boc-7-deoxy-6b-thiomethylpaclitaxel], in data set [1] (setting [2]), the IC50 was determined as 0.2 nM. Also, the “Maximum T-C in LCK (gross log cell kill)” value in the data set on M5076 murine sarcoma was found to be 1.2 LCK.
With `CCOC(=O)N[C@@H](c1ccccc1)[C@@H](O)C(=O)O[C@H]1C[C@@]2(O)[C@@H](OC(=O)c3ccccc3)[C@@H]3[C@]4(OC(C)=O)CO[C@@H]4[C@H](SC)C[C@@]3(C)C(=O)[C@H](OC(C)=O)C(=C1C)C2(C)C` [Compound 28, 3'-NH-ethylcarbonate-7-deoxy-6b-thiomethylpaclitaxel], the IC50 in data set [1] (setting [2]) was found to be 0.7 nM. Besides, in the data set on M5076 murine sarcoma, the “Maximum T-C in LCK (gross log cell kill)” value stood at 1.1 LCK.
With `CCS[C@@H]1C[C@@]2(C)C(=O)[C@H](OC(C)=O)C3=C(C)[C@@H](OC(=O)[C@H](O)[C@@H](NC(=O)c4ccccc4)c4ccccc4)C[C@@](O)([C@@H](OC(=O)c4ccccc4)[C@@H]2[C@]2(OC(C)=O)CO[C@H]12)C3(C)C` [Compound 30, 7-deoxy-6b-thioethylpaclitaxel], the concentration for half-maximal inhibition (IC50) in data set [1] (setting [2]) was 0.9 nM. Also, the “Maximum T-C in LCK (gross log cell kill)” value in the data set on M5076 murine sarcoma is 0.4 LCK.
As to `CC(=O)O[C@H]1C(=O)[C@]2(C)C[C@@H](SCc3ccccc3)[C@H]3OC[C@@]3(OC(C)=O)[C@H]2[C@H](OC(=O)c2ccccc2)[C@]2(O)C[C@H](OC(=O)[C@H](O)[C@@H](NC(=O)c3ccccc3)c3ccccc3)C(C)=C1C2(C)C` [Compound 32, 6-b-thiobenzyl-7-deoxypaclitaxel], the IC50 in data set [1] (setting [2]) was 5.27 nM.
`CC(=O)CS[C@@H]1C[C@@]2(C)C(=O)[C@H](OC(C)=O)C3=C(C)[C@@H](OC(=O)[C@H](O)[C@@H](NC(=O)c4ccccc4)c4ccccc4)C[C@@](O)([C@@H](OC(=O)c4ccccc4)[C@@H]2[C@]2(OC(C)=O)CO[C@H]12)C3(C)C` [Compound 34, 6-b-thiomethyl methyl keto-7-deoxytaclitaxel]: the IC50 in data set [1] (setting [2]) was determined as 1.2 nM. In the data set on M109 lung carcinoma, the “Maximum % T/C (ratio of median survival times treated/control x 100)” value turned out to be 168%.
Consider `CC(=O)O[C@H]1C(=O)[C@]2(C)C[C@@H](SCC#N)[C@H]3OC[C@@]3(OC(C)=O)[C@H]2[C@H](OC(=O)c2ccccc2)[C@]2(O)C[C@H](OC(=O)[C@H](O)[C@@H](NC(=O)c3ccccc3)c3ccccc3)C(C)=C1C2(C)C` [Compound 36, 6b-thioacetonitrile-7-deoxypaclitaxel], for which, in data set [1] (setting [2]), the IC50 was found to be 4.4 nM. Moreover, the “Maximum T-C in LCK (gross log cell kill)” value with M5076 murine sarcoma is given as 1.1 LCK.
For the compound `COC(=O)CS[C@@H]1C[C@@]2(C)C(=O)[C@H](OC(C)=O)C3=C(C)[C@@H](OC(=O)[C@H](O)[C@@H](NC(=O)c4ccccc4)c4ccccc4)C[C@@](O)([C@@H](OC(=O)c4ccccc4)[C@@H]2[C@]2(OC(C)=O)CO[C@H]12)C3(C)C` [Compound 40, 6b-thioacetyl methyl ester-7-deoxypaclitaxel], the IC50 in data set [1] (setting [2]) is 2.5 nM. In addition, the “Maximum % T/C (ratio of median survival times treated/control x 100)” value with M109 lung carcinoma is recorded as 103%.
Regarding `CC(=O)O[C@H]1C(=O)[C@]2(C)C[C@@H](SCC(N)=O)[C@H]3OC[C@@]3(OC(C)=O)[C@H]2[C@H](OC(=O)c2ccccc2)[C@]2(O)C[C@H](OC(=O)[C@H](O)[C@@H](NC(=O)c3ccccc3)c3ccccc3)C(C)=C1C2(C)C` [Compound 44, 7-deoxy-6b-thioacetamidepaclitaxel], in data set [1] (setting [2]), the IC50 was found to be 11 nM. The “Maximum T-C in LCK (gross log cell kill)” value in the data set with M5076 murine sarcoma was determined as 0 LCK.
In the same order, the values of `CSCS[C@@H]1C[C@@]2(C)C(=O)[C@H](OC(C)=O)C3=C(C)[C@@H](OC(=O)[C@H](O)[C@@H](NC(=O)c4ccccc4)c4ccccc4)C[C@@](O)([C@@H](OC(=O)c4ccccc4)[C@@H]2[C@]2(OC(C)=O)CO[C@H]12)C3(C)C` [Compound 46, 6-b-methylthiomethylthio ether-7-deoxy paclitaxel] are 3.5 nM and 0 LCK.
As to `COCS[C@@H]1C[C@@]2(C)C(=O)[C@H](OC(C)=O)C3=C(C)[C@@H](OC(=O)[C@H](O)[C@@H](NC(=O)c4ccccc4)c4ccccc4)C[C@@](O)([C@@H](OC(=O)c4ccccc4)[C@@H]2[C@]2(OC(C)=O)CO[C@H]12)C3(C)C` [Compound 48], the half-inhibitory concentration (IC50) in data set [1] (setting [2]) amounted to 1.9 nM. Besides, the “Maximum T-C in LCK (gross log cell kill)” value in the data set with M5076 murine sarcoma is reported as 0.2 LCK.
Regarding `C=CS[C@@H]1C[C@@]2(C)C(=O)[C@H](OC(C)=O)C3=C(C)[C@@H](OC(=O)[C@H](O)[C@@H](NC(=O)c4ccccc4)c4ccccc4)C[C@@](O)([C@@H](OC(=O)c4ccccc4)[C@@H]2[C@]2(OC(C)=O)CO[C@H]12)C3(C)C` [Compound 50, 6b-thioethenyl-7-deoxypaclitaxel], the IC50 in data set [1] (setting [2]) was found to be 0.3 nM. Besides, in the data set with M5076 murine sarcoma, the “Maximum T-C in LCK (gross log cell kill)” value was found to be 1.0 LCK.
